Experimental data taken from patent EP0093915A1, “Novel beta-lactam derivatives” (GRUPPO LEPETIT S.P.A., priority 1982, dated 1983).

Experiments:
Assay in all cases: MIC in microtiter, antibacterial spectrum in vitro
Assay type in all cases: cell-based
[1] = tested on: K. aerogenes 1522 E; conditions: Penassay broth (Difco), overnight incubation at 37°C
Procedure: (§1) MICS (minimum inhibitory concentrations) were determined in "microtiter" using Brain-heart infusion broth (Difco) or Penassay broth (Difco) for gram-positive or gram-negative bacteria, respectively. S. pyogenes and S. pneu- moniae were tested in Todd-Merwitt broth (Difco).
(§2) The inoculum was overnight cultures diluted to obtain 10^3 or […] respectively in the case of gram-positive or gram-negative strains.
(§3) The MIC was defined as the lowest concentration of antibiotic which […] visible growth after overnight incubation at 37 °C.

[2] = tested on: S. pneumoniae UC 41; conditions: Todd-Merwitt broth (Difco), overnight incubation at 37°C
Procedure: as §1, §2, §3

[3] = tested on: E cloacae P 99 1321 E; conditions: Penassay broth (Difco), overnight incubation at 37°C
Procedure: as §1, §2, §3

[4] = tested on: S. aureus ATCC 6538; conditions: Brain-heart infusion broth (Difco), overnight incubation at 37°C
Procedure: as §1, §2, §3

[5] = tested on: S. pyogenes c 203 ISM; conditions: Todd-Merwitt broth (Difco), overnight incubation at 37°C
Procedure: as §1, §2, §3

[6] = tested on: E. cloacae 45; conditions: Penassay broth (Difco), overnight incubation at 37°C
Procedure: as §1, §2, §3

[7] = tested on: P. vulgaris ATCC 881; conditions: Penassay broth (Difco), overnight incubation at 37°C
Procedure: as §1, §2, §3

[8] = tested on: E. coli SKF 12140; conditions: Penassay broth (Difco), overnight incubation at 37°C
Procedure: as §1, §2, §3

[9] = tested on: S. aureus Smith; conditions: Brain-heart infusion broth (Difco), overnight incubation at 37°C
Procedure: as §1, §2, §3

[10] = tested on: S. pyogenes c 203 SKF 13400; conditions: Todd-Merwitt broth (Difco), overnight incubation at 37°C
Procedure: as §1, §2, §3

| Substance | MIC [1] [mg/L] | MIC [2] [mg/L] | MIC [3] [mg/L] | MIC [4] [mg/L] | MIC [5] [mg/L] | MIC [6] [mg/L] | MIC [7] [mg/L] | MIC [8] [mg/L] | MIC [9] [mg/L] | MIC [10] [mg/L] |
| --- | --- | --- | --- | --- | --- | --- | --- | --- | --- | --- |
| Trans-(±)-6-ethyl-7-oxo-2-[[2-(2-pyridylamino)ethyl]-thio]-1-azabicyclo[3.2.0]hept-2-en-2-carboxylic acid S-oxide, (4-nitrophenyl)methyl ester [Example 22] | 12.5 | 0.05 | 25 | 0.1 | 0.1 | 25 | 3.12 | 25 |  |  |
| Trans-(±)-6-ethyl-7-oxo-2-[[2-[(2-thiazolyl)amino]-ethyl]thio]-1-azabicyclo]3.2.0]hept-2-en-2-carboxylic acid potassium salt [Example 24] | 6.2 | 0.1 | 12.5 | 0.1 |  | 6.2 | 6.2 | 12.5 | 0.4 | 0.1 |
| Trans-(±)-6-ethyl-7-oxo-2-[[2-(2-(2-pyrimidinyl)ethy]-thio]-1-azabicyclo[3.2.0]hept-2-en-2-carboxylic acid S-oxide, (4-nitrophenyl)methyl ester [Example 23] | 3.1 | 0.05 | 3.1 | 0.1 |  | 3.1 | 3.1 | 6.2 | 0.1 | 0.05 |
